From patent US6737383B1, “Herbicidal oxadiazolidines” (priority 1999, dated 2004)

What was measured:
[1] = tested on: cocklebur; assay: Test B pre/postemergence cocklebur; format: in vivo, Xanthium strumarium
Method in brief: (§1)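 Test chemicals in a non-phytotoxic solvent mixture with surfactant were sprayed preemergence onto planted seeds and postemergence onto plants 2 to 18 cm tall (1- to 4-leaf stage). After twelve to sixteen days in a greenhouse, injury was visually rated against untreated controls from 0 (no effect) to 10 (complete control).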

[2] = tested on: corn; assay: Test B pre/postemergence corn; format: in vivo, Zea mays
Method in brief: as §1

[3] = tested on: crabgrass; assay: Test B pre/postemergence crabgrass; format: in vivo, Digitaria sanguinalis
Method in brief: as §1

[4] = tested on: giant foxtail; assay: Test B pre/postemergence giant foxtail; format: in vivo, Setaria faberii
Method in brief: as §1

[5] = tested on: morningglory; assay: Test B pre/postemergence morningglory; format: in vivo, Ipomoea hederacea
Method in brief: as §1

[6] = tested on: pigweed; assay: Test B pre/postemergence pigweed; format: in vivo, Amaranthus retroflexus
Method in brief: as §1

[7] = tested on: rape; assay: Test B pre/postemergence rape; format: in vivo, Brassica napus
Method in brief: as §1

[8] = tested on: soybean; assay: Test B pre/postemergence soybean; format: in vivo, Glycine max
Method in brief: as §1

[9] = tested on: sugar beet; assay: Test B pre/postemergence sugar beet; format: in vivo, Beta vulgaris
Method in brief: as §1

[10] = tested on: velvetleaf; assay: Test B pre/postemergence velvetleaf; format: in vivo, Abutilon theophrasti
Method in brief: as §1

[11] = tested on: wheat; assay: Test B pre/postemergence wheat; format: in vivo, Triticum aestivum
Method in brief: as §1

[12] = tested on: wild oat; assay: Test B pre/postemergence wild oat; format: in vivo, Avena fatua
Method in brief: as §1

[13] = tested on: purple nutsedge; assay: Test B pre/postemergence purple nutsedge; format: in vivo, Cyperus rotundus
Method in brief: as §1

[14] = tested on: rice; assay: Test B flood test rice; format: in vivo, Oryza sativa
Method in brief: (§2)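 Read-out is a visual response score from 0 (no effect) to 10 (complete control), assigned by comparison with untreated controls. Treatment was applied at the 2-leaf stage, and plants stayed in the greenhouse for twelve to sixteen days before scoring.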

[15] = tested on: duck salad; assay: Test B flood test duck salad; format: in vivo, Heteranthera limosa
Method in brief: as §2

[16] = tested on: bamyardgrass; assay: Test B flood test barnyardgrass; format: in vivo, Echinochloa crus-galli
Method in brief: as §2

[17] = Postemergence, Rate 125 g/ha, scale of 0 to 10 where 0 is no effect and 10 is complete control
[18] = Preemergence, Rate 62 g/ha, scale of 0 to 10 where 0 is no effect and 10 is complete control
[19] = Preemergence, Rate 125 g/ha, 0 is no effect, 10 is complete control
[20] = Preemergence, Rate 250 g/ha, scale 0 to 10, 0 is no effect, 10 is complete control
[21] = Preemergence, Rate 500 g/ha, scale 0 to 10 (0 no effect, 10 complete control)
[22] = Rate 62 g/ha, Postemergence, scale of 0 to 10 where 0 is no effect and 10 is complete control
[23] = Rate 250 g/ha, Postemergence, scale 0 to 10, 0 is no effect, 10 is complete control
[24] = Rate 500 g/ha, Postemergence, scale 0 to 10
[25] = Postemergence (flood test species), Rate 125 g/ha, scale of 0 to 10 where 0 is no effect and 10 is complete control
[26] = Rate 62 g/ha, Postemergence section, flood test species, scale of 0 to 10 where 0 is no effect and 10 is complete control
[27] = Rate 250 g/ha, Postemergence (flood test), scale 0 to 10, 0 is no effect, 10 is complete control
[28] = Rate 500 g/ha, listed under Postemergence (flood test species), scale 0 to 10

CC(C)N(C(=O)n1oc(=O)n(-c2nc(Cl)sc2Cl)c1=O)c1ccc(F)cc1 [Compound 160]
0: Cocklebur plant response rating [1, 17] | Cocklebur plant response rating [1, 18] | Cocklebur plant response rating (0 to 10 scale) [1, 19] | Cocklebur plant response rating [1, 20] | Cocklebur plant response rating [1, 21] | Cocklebur plant response rating [1, 22] | Plant response rating, Cocklebur [1, 23] | Cocklebur plant response rating [1, 24] | Corn plant response rating [2, 17] | Corn plant response rating [2, 18] | Corn plant response rating (0 to 10 scale) [2, 19] | Corn plant response rating [2, 20] | Corn plant response rating [2, 21] | Corn plant response rating [2, 22] | Plant response rating, Corn [2, 23] | Corn plant response rating [2, 24] | Crabgrass plant response rating [3, 17] | Crabgrass plant response rating [3, 18] | Crabgrass plant response rating (0 to 10 scale) [3, 19] | Crabgrass plant response rating [3, 20] | Crabgrass plant response rating [3, 21] | Crabgrass plant response rating [3, 22] | Plant response rating, Crabgrass [3, 23] | Crabgrass plant response rating [3, 24] | Giant foxtail plant response rating [4, 17] | Giant foxtail plant response rating [4, 18] | Giant foxtail plant response rating (0 to 10 scale) [4, 19] | Giant foxtail plant response rating [4, 20] | Giant foxtail plant response rating [4, 21] | Giant foxtail plant response rating [4, 22] | Plant response rating, Giant foxtail [4, 23] | Giant foxtail plant response rating [4, 24] | Morningglory plant response rating [5, 17] | Morningglory plant response rating [5, 18] | Morningglory plant response rating (0 to 10 scale) [5, 19] | Morningglory plant response rating [5, 20] | Morningglory plant response rating [5, 21] | Morningglory plant response rating [5, 22] | Plant response rating, Morningglory [5, 23] | Morningglory plant response rating [5, 24] | Redroot pigweed plant response rating [6, 17] | Redroot pigweed plant response rating [6, 18] | Redroot pigweed plant response rating (0 to 10 scale) [6, 19] | Redroot pigweed plant response rating [6, 20] | Redroot pigweed plant response rating [6, 21] | Redroot pigweed plant response rating [6, 22] | Plant response rating, Redroot pigweed [6, 23] | Redroot pigweed plant response rating [6, 24] | Rape plant response rating [7, 17] | Rape plant response rating [7, 18] | Rape plant response rating (0 to 10 scale) [7, 19] | Rape plant response rating [7, 20] | Rape plant response rating [7, 21] | Rape plant response rating [7, 22] | Plant response rating, Rape [7, 23] | Rape plant response rating [7, 24] | Soybean plant response rating [8, 17] | Soybean plant response rating [8, 18] | Soybean plant response rating (0 to 10 scale) [8, 19] | Soybean plant response rating [8, 20] | Soybean plant response rating [8, 21] | Soybean plant response rating [8, 22] | Plant response rating, Soybean [8, 23] | Soybean plant response rating [8, 24] | Sugarbeets plant response rating [9, 17] | Sugarbeets plant response rating [9, 18] | Sugarbeets plant response rating (0 to 10 scale) [9, 19] | Sugarbeets plant response rating [9, 20] | Sugarbeets plant response rating [9, 21] | Sugarbeets plant response rating [9, 22] | Plant response rating, Sugarbeets [9, 23] | Sugarbeets plant response rating [9, 24] | Velvetleaf plant response rating [10, 18] | Velvetleaf plant response rating (0 to 10 scale) [10, 19] | Velvetleaf plant response rating [10, 20] | Velvetleaf plant response rating [10, 21] | Plant response rating, Velvetleaf [10, 23] | Velvetleaf plant response rating [10, 24] | Wheat plant response rating [11, 18] | Wheat plant response rating (0 to 10 scale) [11, 19] | Wheat plant response rating [11, 20] | Wheat plant response rating [11, 21] | Plant response rating, Wheat [11, 23] | Wheat plant response rating [11, 24] | Wild oats plant response rating [12, 18] | Wild oats plant response rating (0 to 10 scale) [12, 19] | Wild oats plant response rating [12, 20] | Wild oats plant response rating [12, 21] | Plant response rating, Wild oats [12, 23] | Wild oats plant response rating [12, 24] | Nutsedge plant response rating [13, 17] | Nutsedge plant response rating [13, 18] | Nutsedge plant response rating (0 to 10 scale) [13, 19] | Nutsedge plant response rating [13, 20] | Nutsedge plant response rating [13, 21] | Nutsedge plant response rating [13, 22] | Plant response rating, Nutsedge [13, 23] | Nutsedge plant response rating [13, 24] | Rice plant response rating [14, 25] | Rice plant response rating [14, 26] | Plant response rating, Rice [14, 27] | Rice plant response rating [14, 28] | Ducksalad plant response rating [15, 25] | Ducksalad plant response rating [15, 26] | Plant response rating, Ducksalad [15, 27] | Ducksalad plant response rating [15, 28] | Barnyardgrass plant response rating [16, 25] | Barnyardgrass plant response rating [16, 26] | Plant response rating, Barnyardgrass [16, 27] | Barnyardgrass plant response rating [16, 28]
